{"source": "ChEMBL document CHEMBL3638637", "about": "“Imidazo[1,2-Œ±]pyridine sulfonamides as TRPM8 modulators” (2015)", "target": "Transient receptor potential M8 protein (Canis lupus familiaris, UniProt Q1A7N1)", "sequence (Q1A7N1 whole entry)": "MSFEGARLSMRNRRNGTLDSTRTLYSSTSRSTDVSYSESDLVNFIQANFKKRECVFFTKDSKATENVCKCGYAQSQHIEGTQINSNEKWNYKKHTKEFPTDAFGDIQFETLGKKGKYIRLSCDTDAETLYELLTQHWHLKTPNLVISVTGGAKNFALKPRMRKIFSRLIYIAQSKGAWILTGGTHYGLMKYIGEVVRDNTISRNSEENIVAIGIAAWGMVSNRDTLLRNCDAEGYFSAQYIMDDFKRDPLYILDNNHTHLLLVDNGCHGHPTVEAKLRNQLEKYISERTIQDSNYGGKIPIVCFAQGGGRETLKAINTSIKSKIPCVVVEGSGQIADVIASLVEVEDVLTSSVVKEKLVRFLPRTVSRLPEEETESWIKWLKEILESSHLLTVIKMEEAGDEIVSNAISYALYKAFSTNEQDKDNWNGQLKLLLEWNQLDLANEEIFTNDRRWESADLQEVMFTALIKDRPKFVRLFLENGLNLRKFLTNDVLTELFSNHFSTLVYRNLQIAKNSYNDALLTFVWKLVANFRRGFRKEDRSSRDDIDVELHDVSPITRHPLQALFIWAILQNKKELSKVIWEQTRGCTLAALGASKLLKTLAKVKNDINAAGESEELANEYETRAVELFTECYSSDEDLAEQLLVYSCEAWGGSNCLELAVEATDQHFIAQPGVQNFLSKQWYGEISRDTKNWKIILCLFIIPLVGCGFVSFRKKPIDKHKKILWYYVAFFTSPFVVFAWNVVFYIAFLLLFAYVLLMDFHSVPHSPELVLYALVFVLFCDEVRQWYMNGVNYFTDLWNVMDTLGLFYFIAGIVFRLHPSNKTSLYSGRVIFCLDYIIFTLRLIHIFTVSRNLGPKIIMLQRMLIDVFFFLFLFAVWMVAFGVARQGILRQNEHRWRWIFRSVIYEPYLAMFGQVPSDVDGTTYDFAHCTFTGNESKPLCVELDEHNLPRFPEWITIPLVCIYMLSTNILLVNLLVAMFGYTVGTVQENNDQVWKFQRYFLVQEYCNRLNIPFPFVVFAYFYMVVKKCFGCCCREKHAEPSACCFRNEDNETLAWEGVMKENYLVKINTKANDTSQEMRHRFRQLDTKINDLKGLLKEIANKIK", "assay": "FLIPR Assay: The functional activity of compounds of the formula (I) was determined by measuring changes in intracellular calcium concentration using a Ca2+-sensitive fluorescent dye. The changes in fluorescent signal were monitored by a fluorescence plate reader, either a FLIPR (Molecular Devices) or FDSS (Hamamatsu). Increases in intracellular Ca2+ concentration were readily detected upon activation with icilin.At 24 hrs prior to assay, HEK293 cells stably expressing canine TRPM8 were seeded in culture medium in black wall, clear-base poly-D-lysine coated 384-well plates (BD Biosciences, NJ, USA) and grown overnight in 5% CO2 at 37° C. On assay day, growth media was removed and cells were loaded with Calcium 3 Dye (Molecular Devices) for 35 min at 37° C., under 5% CO2 and then for 25 min at room temperature and atmosphere.", "type": "cell-based", "note": "pIC50: −log10 of the molar value."}
{"compound": "Cc1c(N(Cc2ccc(F)c(C(F)(F)F)c2)S(=O)(=O)c2ccc(C(=O)O)cc2)nc2ccc(Cl)cn12", "values": [{"measurement": "pIC50", "result": 7.46}]}
